The record followed here is ChEMBL document CHEMBL1201862, “PubChem BioAssay data set” (2004).

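Each compound was tested at five concentrations against cells in 96-well plates for 48 hours. Here, GI50 denotes the concentration required for 50% inhibition of growth.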 Calls of active or inactive are those of the source. Cut-off read from the data, not from the text of the source: active = GI50 up to about 1.1 µM and inactive = higher.

Some test systems named below: DLD-1; LXFL 529; XF498; HOP-18; SNB-78; DMS-114; KM-20L2; DMS-273; RXF 631.
Assay in all cases: NCI anticancer screen, dose series, 48 h

Take `CC(Oc1ccc2c(-c3ccccc3)cc(=O)oc2c1)C(=O)O` (stereo not given): the GI50 with DLD-1, in the assay with LXFL 529, with XF498, in the assay on HOP-18, in the assay with SNB-78 and in the assay on DMS-114 was > 100 µM (inactive) throughout. The GI50 in the assay on KM-20L2 was > 100 µM (inactive).
In the case of `N#C/C(=C\c1ccc(CP(=O)(O)O)cc1)C(N)=O`, the GI50 with DMS-273, in the assay on DLD-1, with LXFL 529, in the assay with XF498, in the assay on HOP-18 and with DMS-114 was > 100 µM (inactive) throughout. In addition, the GI50 in the assay on KM-20L2 was > 100 µM (inactive).
Consider `COc1cc(C)c(O)c(C(=O)O)c1`, for which the GI50 in the assay on DMS-273, with DLD-1, in the assay on LXFL 529, in the assay with XF498, in the assay with HOP-18 and in the assay on SNB-78 was > 100 µM (inactive) throughout. The GI50 in the assay on DMS-114 and with KM-20L2 was > 100 µM (inactive) throughout.
`O=c1ccn([C@@H]2C[C@H](CO)C[S+]([O-])C2)c(=O)[nH]1` (stereo not given in full): the GI50 in the assay on DMS-273, in the assay with DLD-1, in the assay with LXFL 529, in the assay with HOP-18, with DMS-114 and with KM-20L2 was > 100 µM (inactive) in each case.
For `C=CC1(NS(=O)(=O)c2ccc(C)cc2)CCC(C(C)(C)C)CC1` (stereo not given), the GI50 with DMS-273 was 43.5 µM (inactive); in the assay on DLD-1, > 100 µM (inactive); in the assay with LXFL 529 it was 99.5 µM (inactive); in the assay with HOP-18 it was 37.5 µM (inactive); in the assay on SNB-78, 30.7 µM (inactive); in the assay on DMS-114, 27 µM (inactive). Also, in the assay on KM-20L2, the GI50 was > 100 µM (inactive).
Regarding `NC(=O)CC(N/C=C1/N=C(c2ccccc2)OC1=O)C(=O)O` (stereo not given), the GI50 with DMS-273, in the assay on DLD-1, in the assay with LXFL 529, in the assay on HOP-18, in the assay on SNB-78 and in the assay on DMS-114 was > 100 µM (inactive) throughout. The GI50 in the assay on KM-20L2 and with RXF 631 was > 100 µM (inactive) throughout.
As for `COc1cc([C@@H]2c3cc4c(cc3C(N)C3COC(=O)[C@@H]32)OCO4)cc(OC)c1O` (stereo not given in full), the GI50 is 0.377 µM (active) with DLD-1; 0.117 µM (active) in the assay with LXFL 529; > 100 µM (inactive) in the assay on HOP-18; 0.245 µM (active) in the assay with DMS-114; 0.176 µM (active) in the assay with KM-20L2; 0.178 µM (active) in the assay on RXF 631.
On to `COc1ccc(/C=C2\C(=O)N(NC(C)=O)c3ccccc32)cc1`, for which the GI50 in the assay on DMS-273 was 99.1 µM (inactive); with DLD-1, 68.4 µM (inactive); in the assay with XF498 it was > 100 µM (inactive); with HOP-18 it was > 100 µM (inactive); in the assay on SNB-78, > 100 µM (inactive); in the assay with DMS-114 it was 77.3 µM (inactive). Also, the GI50 with KM-20L2 and in the assay on RXF 631 was > 100 µM (inactive) each time.
Consider `CN(CCCCN)c1ccc2c(=O)[nH][nH]c(=O)c2c1`, for which the GI50 with DMS-273, in the assay with DLD-1, with LXFL 529, with XF498, in the assay on HOP-18 and in the assay on SNB-78 was > 100 µM (inactive) in each case. Further, the GI50 with DMS-114 was > 100 µM (inactive); with RXF 631 it was > 10 µM (inactive).
With `COc1cc2c(cc1O)[C@@]1(Cc3ccc(OC)c(OC)c3)CCC(=O)N1CC2`, the GI50 was > 100 µM (inactive) with DMS-273; > 100 µM (inactive) in the assay with DLD-1; > 100 µM (inactive) in the assay with LXFL 529; 31.3 µM (inactive) in the assay with HOP-18; > 100 µM (inactive) in the assay on SNB-78; > 100 µM (inactive) in the assay with DMS-114. The GI50 in the assay with KM-20L2 is > 100 µM (inactive).
With `Cc1cc(C)c(C2[C@H]3C(=O)N(c4ccc(Cc5ccc(N6C(=O)[C@@H]7ON(c8ccccc8)C(c8c(C)cc(C)cc8C)[C@@H]7C6=O)cc5)cc4)C(=O)[C@H]3ON2c2ccccc2)c(C)c1` (stereo not given in full), the GI50 in the assay on DMS-273, in the assay on DLD-1, with LXFL 529, in the assay with HOP-18, with SNB-78 and in the assay on DMS-114 was > 100 µM (inactive) in each case. Besides, the GI50 in the assay on KM-20L2 and in the assay on RXF 631 was > 100 µM (inactive) in each case.
Turning to `COc1cccc2c1C(=O)c1c(O)c3c(c(O)c1C2=O)C[C@@](O)(C(C)=O)C[C@@H]3OC1CC([N+]([O-])(Cc2ccccc2)Cc2ccccc2)C(O)C(C)O1` (stereo not given in full), the GI50 in the assay on DLD-1 is 1.29 µM (inactive); in the assay with LXFL 529 it was 1.11 µM (active); in the assay on XF498, 1.23 µM (inactive); in the assay with HOP-18, 1.58 µM (inactive); in the assay with DMS-114 it was 1.33 µM (inactive); in the assay with KM-20L2, 1.55 µM (inactive). In addition, the GI50 with RXF 631 is 0.428 µM (active).
Take `NC(CCCNc1cccc(O)c1)C(=O)O` (stereo not given): the GI50 in the assay on DMS-273, in the assay with DLD-1, in the assay with LXFL 529, in the assay with HOP-18, in the assay with SNB-78 and with DMS-114 was > 100 µM (inactive) in each case. Also, in the assay on KM-20L2, the GI50 is > 100 µM (inactive).
Regarding `CC1(C)C(c2ccccc2)=NN(O)c2ccccc21`, the GI50 with DMS-273, in the assay on DLD-1, in the assay with LXFL 529, in the assay on HOP-18, in the assay with SNB-78 and with KM-20L2 was > 100 µM (inactive) in each case.
As for `CC(=O)OC(CCC1(C)OC1COc1ccc(CCNC(=O)c2ccccc2)cc1)C(C)(C)OC(C)=O` (stereo not given), the GI50 in the assay with DMS-273 was 11 µM (inactive); in the assay on DLD-1, 45 µM (inactive); in the assay with LXFL 529, 10.3 µM (inactive); in the assay with HOP-18 it was > 100 µM (inactive); in the assay with SNB-78, 36.2 µM (inactive); in the assay with DMS-114, 0.325 µM (active). Further, in the assay on KM-20L2, the GI50 was 30.1 µM (inactive).
On to `CCN(CC)CCC1CC/C(=C\c2ccc(OC)cc2)C1=O` (stereo not given), for which the GI50 is > 100 µM (inactive) in the assay on DMS-273; > 100 µM (inactive) with DLD-1; 58.5 µM (inactive) with LXFL 529; 49.8 µM (inactive) in the assay on XF498; > 100 µM (inactive) in the assay on HOP-18; 81.1 µM (inactive) in the assay on SNB-78. Further, the GI50 in the assay with DMS-114 was 38.6 µM (inactive); in the assay on KM-20L2, 30.3 µM (inactive).
For the compound `Cc1ccc(/C=C/C(=O)CCN(C)C)cc1`, the GI50 in the assay on DMS-273 was 13 µM (inactive); in the assay on DLD-1, 18.1 µM (inactive); in the assay with LXFL 529 it was 19.4 µM (inactive); in the assay with XF498, 14.2 µM (inactive); in the assay with HOP-18, 20.7 µM (inactive); in the assay on SNB-78, 28.6 µM (inactive). Also, the GI50 with DMS-114 and with KM-20L2 was 18.3 µM (inactive) each time.
With `COC(=O)C(C#N)=C1c2ccccc2Oc2ccccc21`, the GI50 is > 100 µM (inactive) in the assay on DMS-273; > 100 µM (inactive) in the assay with DLD-1; 29.8 µM (inactive) in the assay with LXFL 529; > 100 µM (inactive) with XF498; 28.6 µM (inactive) with SNB-78; 32.7 µM (inactive) in the assay on DMS-114. The GI50 with KM-20L2 is 91.2 µM (inactive).
For the compound `O=C1C(=Cc2ccc([N+](=O)[O-])o2)C(=O)N(CCc2ccccc2)S(=O)(=O)N1CCc1ccccc1`, the GI50 is 32.7 µM (inactive) in the assay on DMS-273; 17.6 µM (inactive) in the assay with DLD-1; 16.8 µM (inactive) with LXFL 529; 20.4 µM (inactive) in the assay with XF498; 42.2 µM (inactive) with HOP-18; 26.1 µM (inactive) in the assay with SNB-78. For the same compound, the GI50 with KM-20L2 is > 100 µM (inactive).
For the compound `CC(C)(c1ccccc1)c1ccc(OC#N)cc1`, the GI50 is 17 µM (inactive) in the assay with DMS-273; > 44.5 µM (inactive) in the assay on DLD-1; > 78.3 µM (inactive) with LXFL 529; 44.6 µM (inactive) in the assay with XF498; > 100 µM (inactive) in the assay with HOP-18; > 100 µM (inactive) in the assay on SNB-78. The figures for the GI50 in the assay on DMS-114 and in the assay on KM-20L2 were 28.4 µM (inactive) and > 60.3 µM (inactive), respectively.
With `C=C[C@@]1(O)CCCC2=C(C(=O)OCC)CC[C@]21C`, the GI50 in the assay on DMS-273 is 37.5 µM (inactive); in the assay with DLD-1 it was > 100 µM (inactive); in the assay with LXFL 529, > 100 µM (inactive); with HOP-18, 99.8 µM (inactive); in the assay with DMS-114, 44 µM (inactive).
Take `Nc1ccccc1Nc1ccccc1C(=O)[O-].Nc1ccccc1Nc1ccccc1C(=O)[O-].[Zn+2]`: the GI50 was 28.1 µM (inactive) with XF498 and > 100 µM (inactive) with KM-20L2.
As to `CCOC(=O)Oc1c(OC)cc(C(=O)NC2CCc3cc(OC)c(OC)c(OC)c3-c3ccc(SC)c(=O)cc32)cc1OC` (stereo not given), the GI50 in the assay on DMS-273 is < 0.007 µM (active); with DLD-1, 0.0723 µM (active); with LXFL 529, 0.0386 µM (active); in the assay with XF498, 0.0681 µM (active); in the assay on SNB-78, 0.0489 µM (active); in the assay on DMS-114, 0.0261 µM (active). Also, the GI50 in the assay with KM-20L2 was 0.0853 µM (active).
For the compound `O=C1CCCN(c2ccccc2)N1`, the GI50 in the assay on DMS-273, with LXFL 529, in the assay with DMS-114, in the assay on KM-20L2 and in the assay on RXF 631 was > 100 µM (inactive) in each case.
Take `COc1cc2c[n+](C)c3c4cc(OC)c(OC)cc4c(OCCCCCCCCOc4cc5c6cc(OC)c(OC)cc6c[n+](C)c5c5cc(OC)c(OC)cc45)cc3c2cc1OC`: the GI50 was 20 µM (inactive) with DMS-273; > 100 µM (inactive) in the assay on DLD-1; > 100 µM (inactive) in the assay on LXFL 529; > 100 µM (inactive) in the assay with XF498; > 100 µM (inactive) in the assay with HOP-18; > 100 µM (inactive) in the assay with SNB-78. The GI50 was 22.1 µM (inactive) with DMS-114 and 80 µM (inactive) in the assay with KM-20L2.
Turning to `CN1C(=O)C(=O)c2cc3c(c4c2c1cc1ccccc14)OCO3` [CEPHARADIONE A], the GI50 was 22.9 µM (inactive) with DMS-273; 31.2 µM (inactive) with DLD-1; 30.8 µM (inactive) in the assay with LXFL 529; > 100 µM (inactive) in the assay on XF498; 42.9 µM (inactive) in the assay on HOP-18; 7.83 µM (inactive) with SNB-78. Besides, the figures for the GI50 with DMS-114 and in the assay with KM-20L2 were 31.6 µM (inactive) and 39.4 µM (inactive), respectively.
